According to patent US8323919B2, “Assay methods for identifying glycogen synthase kinase 3 modulators” (PerkinElmer BioSignal, Inc., priority 2009, dated 2012):

Target: T1, GSK3β (Homo sapiens, UniProt P49841)
T1 construct: purchased Carna Biosciences
Experiment: LANCE Ultra TR-FRET kinase assay: phosphorylation of non-primed ULight-labeled 4E-BP1-derived peptide by GSK3β in the presence of inhibitor
Assay type: biochemical
Details: GSK3β (Carna Biosciences) 2 nM, ATP 10 μM, ULight-4E-BP1 50 nM, 60 min, DMSO 1%, inhibitor at various concentrations
Experimental: Anti-phosphorylated-4E-BP1 antibody (Thr37/46) labeled with a FRET donor is added and upon irradiation, the proximity of the FRET donor and FRET acceptor produce a signal, shown on the y-axis. The 4E-BP1-derived peptide substrate of SEQ ID No. 7 was used, modified by addition of three amino acids at both the N- and C-termini to facilitate solubilizing the peptide and labeling of the peptide with a FRET acceptor label; and
Anti-phosphorylated-4E-BP1 antibody (Thr37/46) labeled with a FRET donor is added and upon irradiation, the proximity of the FRET donor and FRET acceptor produce a signal, shown on the y-axis The 4E-BP1-derived peptide substrate of SEQ ID No. 7 was used, modified by addition of three amino acids at both the N- and C-termini to facilitate solubilizing the peptide and labeling of the peptide with a FRET acceptor label.
LANCE® Ultra assays are based on time-resolved fluorescence resonance energy transfer (TR-FRET). They use a proprietary europium chelate donor dye, W-1024 (Eu), with ULight®, a small molecular weight acceptor dye with a red fluorescent emission. In kinase assays, the binding of a Eu-labeled anti-phospho-substrate antibody to the phosphorylated ULight-labeled substrate brings donor and acceptor dye molecules into proximity. […]

T1 sequence (P49841 whole entry): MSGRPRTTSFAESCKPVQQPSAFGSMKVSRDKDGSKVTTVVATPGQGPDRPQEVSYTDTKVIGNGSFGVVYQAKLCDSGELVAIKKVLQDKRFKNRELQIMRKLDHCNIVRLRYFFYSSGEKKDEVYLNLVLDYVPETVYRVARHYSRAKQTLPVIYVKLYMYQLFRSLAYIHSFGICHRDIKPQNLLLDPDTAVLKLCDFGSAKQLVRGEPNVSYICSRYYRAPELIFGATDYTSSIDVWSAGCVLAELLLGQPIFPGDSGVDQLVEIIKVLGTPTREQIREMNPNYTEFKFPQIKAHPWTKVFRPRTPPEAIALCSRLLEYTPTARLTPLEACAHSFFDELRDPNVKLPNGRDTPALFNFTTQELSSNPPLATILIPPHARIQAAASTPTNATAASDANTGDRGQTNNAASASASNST

SMILES	GSK3β activity on a 4E-BP1 GSK3 substrate
Cn1cc(C2=C(c3ccc(Cl)cc3Cl)C(=O)NC2=O)c2ccccc21 [SB216763]	inhibited
O=C1Cc2c([nH]c3ccc(Br)cc23)-c2ccccc2N1 [kenpaullone]	inhibited
